From patent US20080161188A1, “HERBICIDAL COMPOSITIONS AND METHODS OF CONTROLLING WEED GROWTH” (priority 2006, published 2008)

Tested on: turf (perennial rye grass, fescue, crabgrass, and several unidentified broad-leaf weeds)
Test: Field test plots: rate of control of turf by ready to use glyphosate composition with fatty acid additive
Type: in vivo
Conditions: versus the same compositions without (water control) short chain fatty acid
Experimental: This composition included all of the water necessary to apply for weed control and was not further diluted.
The test plots included several species including perennial rye grass, fescue, crabgrass, and several unidentified broad-leaf weeds. As this is a non-selective test, all growing plants (monocot and broadleaf) were evaluated as one species referred to as “turf.” Test plots were 4-ft by 60 ft rectangles with untreated check plots to either side. Evaluations were made at 3 days, 7 days and 14 days by visually inspecting each plot comparing health and vigor of turf (color and mortality) to adjacent untreated controls.

Compound: CC(O)C(=O)O (stereo not shown) [Lactic acid, lactic acid]
- enhancing the rate of weed control in herbicide compositions: particularly effective
